The source of these data is ChEMBL document CHEMBL4483862, “Open-source discovery of chemical leads for next-generation chemoprotective antimalarials” (2018).

The subject of this experiment is Plasmodium berghei. In words: Luciferase/luciferin-expressing antifolate-resistant parasites were used to infect a culture of HepG2 cells that were pre-incubated with compounds. Infected hepatocytes emit light due to the luciferase reaction. Assay results are presented as the percent inhibition of light emission compared to control. […]. It counts as functional. The conditions noted are these: sporozoite; for IC90: read-out: LUCIFERASE INFECTION ASSAY - IC90.

Setting [1] is: read-out: LUCIFERASE INFECTION ASSAY - IC50.

The structures appear in SMILES notation. pIC50: −log10 of the molar value.

On to `O=C1NC(c2c(-c3ccccc3)[nH]c3ccccc23)Nc2ccccc21` (stereo unspecified), for which the IC90 worked out at 1.21 µM. Besides, for the setting “HEPG2TOX_HILL_SLOPE 1.35, HEPG2TOX_R_SQUARED 0.878, PBLUC_HILL_SLOPE 2.2, PBLUC_R_SQUARED 0.804, read-out: LUCIFERASE INFECTION ASSAY - IC50”, the pIC50 was 6.35.
Turning to `O=C(CN1CC=C(c2c[nH]c3ccccc23)CC1)Nc1ccccc1OC(F)F`, the 90% effect concentration (IC90) was > 10 µM. The negative logarithm of the IC50 (pIC50) (HEPG2TOX_HILL_SLOPE 99.6, HEPG2TOX_R_SQUARED 0.512, PBLUC_HILL_SLOPE 10, PBLUC_R_SQUARED 0.0817, read-out: LUCIFERASE INFECTION ASSAY - IC50) is < 5.00.
For the compound `CSc1nc2ccc(NC(=O)c3cn4ccccc4n3)cc2s1`, the IC90 was > 10 µM. Further, under setting [1], the negative-log IC50 (pIC50) was 5.50.
For `COc1cc2[nH]c(CSc3nnc(-c4ccccc4F)n3C3CC3)nc(=O)c2cc1OC`, the concentration for an effect of 90% (IC90) was > 10 µM. Under “PBLUC_HILL_SLOPE 1.81, PBLUC_R_SQUARED 0.0649, read-out: LUCIFERASE INFECTION ASSAY - IC50”, the pIC50 was < 5.00.
`Cc1ccc(CCC2CCN(C(=O)c3ccc(NS(=O)(=O)c4cccs4)cc3O)CC2)cc1`: the IC90 is > 10 µM. In addition, the pIC50 (FFLUC_HILL_SLOPE 12, FFLUC_R_SQUARED 0.0293, HEPG2TOX_HILL_SLOPE 12.4, HEPG2TOX_R_SQUARED 0.101, read-out: LUCIFERASE INFECTION ASSAY - IC50) was < 5.00.
For the compound `CNC(=O)c1cccc(-c2ccc3ncc(-c4ccc(CO)cc4)n3n2)c1`, the IC90 was > 10 µM. The pIC50 (HEPG2TOX_HILL_SLOPE 13.1, HEPG2TOX_R_SQUARED 0.574, PBLUC_HILL_SLOPE 1.06, PBLUC_R_SQUARED 0.813, read-out: LUCIFERASE INFECTION ASSAY - IC50) is 5.86.
In the case of `CCn1c(SCc2csc(N(C(C)=O)c3c(C)cc(C)cc3Cl)n2)nnc1C1CC1`, the 90% effect concentration (IC90) is > 10 µM. In addition, the pIC50 under setting [1] is < 5.00.
As for `CC(C)C(Nc1ccc(S(=O)(=O)N2CCOCC2)cc1[N+](=O)[O-])c1nc2ccccc2[nH]1` (stereo unspecified), the concentration for an effect of 90% (IC90) is > 10 µM. Under setting [1], the negative logarithm of the IC50 (pIC50) is 5.02.
Regarding `O=C(c1ccc2[nH]c3c(c2c1)CCCC3)N1CCN(Cc2nc(-c3cccs3)no2)CC1`, the IC90 was > 10 µM. Moreover, the pIC50 under setting [1] is < 5.00.
Take `O=C(Nc1nc2ccccn2c1C(=O)NC1CCCC1)c1cccc(Cl)c1F`: the IC90 was determined as 1.24 µM. Moreover, for the setting “HEPG2TOX_HILL_SLOPE 0.754, HEPG2TOX_R_SQUARED 0.896, PBLUC_HILL_SLOPE 3.54, PBLUC_R_SQUARED 0.569, read-out: LUCIFERASE INFECTION ASSAY - IC50”, the pIC50 is 6.17.
On to `CCOc1ccc(-n2c(SCC(=O)Nc3cc(C(C)(C)C)nn3-c3ccccc3)nc3ccccc32)cc1`, for which the IC90 is > 10 µM. For the setting “FFLUC_HILL_SLOPE 35.3, FFLUC_R_SQUARED 0.234, PBLUC_HILL_SLOPE 11.6, PBLUC_R_SQUARED 0.616, read-out: LUCIFERASE INFECTION ASSAY - IC50”, the negative logarithm of the IC50 (pIC50) was 5.06.
Consider `CCCCNC(=O)c1c(NC(=O)c2cccc(C)c2)nc2ccccn12`, for which the IC90 came to 6.37 µM. The negative-log IC50 (pIC50) (HEPG2TOX_HILL_SLOPE 8.37, HEPG2TOX_R_SQUARED 0.0961, PBLUC_HILL_SLOPE 7.21, PBLUC_R_SQUARED 0.187, read-out: LUCIFERASE INFECTION ASSAY - IC50) is 5.33.
In the case of `CCNC(=O)NC(=O)C(C)OC(=O)c1c(C)c(CC)nc2ccccc12` (stereo unspecified), the IC90 is > 10 µM. Further, under “HEPG2TOX_HILL_SLOPE 14.2, HEPG2TOX_R_SQUARED 0.666, PBLUC_HILL_SLOPE 0.849, PBLUC_R_SQUARED 0.474, read-out: LUCIFERASE INFECTION ASSAY - IC50”, the negative-log IC50 (pIC50) was 5.36.
Consider `CS(=O)(=O)Nc1cccc(-c2cn3c(-c4cccc(OC(F)(F)F)c4)cnc3cn2)c1`, for which the IC90 was > 7.36 µM. Under “PBLUC_HILL_SLOPE 13.3, PBLUC_R_SQUARED 0.233, read-out: LUCIFERASE INFECTION ASSAY - IC50”, the pIC50 was 5.15.
Consider `COc1ccc2c(-c3ccccc3)cc(SCc3nnc(C)o3)nc2c1`, for which the IC90 was > 10 µM. The negative logarithm of the IC50 (pIC50) (PBLUC_HILL_SLOPE 2.18, PBLUC_R_SQUARED 0.122, read-out: LUCIFERASE INFECTION ASSAY - IC50) is 5.22.
As to `O=S(=O)(c1ccc2ccccc2c1)N1CCCC1c1ccncc1` (stereo unspecified), the IC90 is > 10 µM. In addition, where the note is “HEPG2TOX_HILL_SLOPE 4.75, HEPG2TOX_R_SQUARED 0.828, PBLUC_HILL_SLOPE 11, PBLUC_R_SQUARED 0.196, read-out: LUCIFERASE INFECTION ASSAY - IC50”, the negative logarithm of the IC50 (pIC50) is 5.03.
Regarding `CC(C(=O)NCC1CCCCC1)N1CCN(c2ccc(F)cc2)CC1` (stereo unspecified), the 90% effect concentration (IC90) is > 10 µM. Also, the pIC50 (FFLUC_HILL_SLOPE 3.15, FFLUC_R_SQUARED 0.597, read-out: LUCIFERASE INFECTION ASSAY - IC50) was < 5.00.
Consider `COc1ccc(-c2cnc3cnc(-c4ccc(N)nc4)cn23)cc1`, for which the IC90 came to 8 µM. Further, the pIC50 (PBLUC_HILL_SLOPE 1.84, PBLUC_R_SQUARED 0.648, read-out: LUCIFERASE INFECTION ASSAY - IC50) was 5.61.
As for `COc1ccc(CCN(C)CC(O)COc2ccc(C(C)(C)CC(C)(C)C)cc2)cc1OC` (stereo unspecified), the IC90 was > 10 µM. The pIC50 (PBLUC_HILL_SLOPE 3.04, PBLUC_R_SQUARED 0.101, read-out: LUCIFERASE INFECTION ASSAY - IC50) was 5.02.
In the case of `N#Cc1c(SCc2ccccc2)nc2c(c1-c1cccs1)CCCC2`, the 90% effect concentration (IC90) is > 9.1 µM. Besides, the pIC50 (FFLUC_HILL_SLOPE 16.1, FFLUC_R_SQUARED 0.0835, PBLUC_HILL_SLOPE 1.89, PBLUC_R_SQUARED 0.544, read-out: LUCIFERASE INFECTION ASSAY - IC50) was 5.46.
Regarding `CCOC(=O)c1c(S(=O)(=O)Nc2ccc(OC(F)(F)F)cc2)c(-c2ccccc2)n(-c2ccccc2)c1C`, the IC90 was > 6.06 µM. Moreover, where the note is “HEPG2TOX_HILL_SLOPE 3.6, HEPG2TOX_R_SQUARED 0.938, PBLUC_HILL_SLOPE 3.83, PBLUC_R_SQUARED 0.0999, read-out: LUCIFERASE INFECTION ASSAY - IC50”, the pIC50 is 5.46.
`Cc1noc(C)c1NC(=O)Nc1cc(C(F)(F)F)cc(C(F)(F)F)c1`: the IC90 was > 8.99 µM. Moreover, for the setting “FFLUC_HILL_SLOPE 4.67, FFLUC_R_SQUARED 0.129, HEPG2TOX_HILL_SLOPE 8.81, HEPG2TOX_R_SQUARED 0.655, PBLUC_HILL_SLOPE 1.82, PBLUC_R_SQUARED 0.142, read-out: LUCIFERASE INFECTION ASSAY - IC50”, the negative logarithm of the IC50 (pIC50) is 5.32.
In the case of `C(=N\c1ccccc1-n1cccc1)/c1cnc(-c2ccccc2)[nH]1`, the IC90 was > 10.6 µM. The pIC50 (PBLUC_HILL_SLOPE 8.03, PBLUC_R_SQUARED 0.709, read-out: LUCIFERASE INFECTION ASSAY - IC50) was < 4.97.
In the case of `CN(C)c1ccc(S(N)(=O)=O)cc1NC(=O)Cc1ccc(-c2ccccc2)cc1`, the IC90 is > 10 µM. Besides, where the note is “PBLUC_HILL_SLOPE 2.92, PBLUC_R_SQUARED 0.577, read-out: LUCIFERASE INFECTION ASSAY - IC50”, the negative-log IC50 (pIC50) was 5.27.
Take `O=C(Nc1ccc(C(F)(F)F)cc1)Nc1sccc1Cl`: the IC90 worked out at 7.98 µM. The pIC50 (HEPG2TOX_HILL_SLOPE 9.59, HEPG2TOX_R_SQUARED 0.7, PBLUC_HILL_SLOPE 5.14, PBLUC_R_SQUARED 0.452, read-out: LUCIFERASE INFECTION ASSAY - IC50) is 5.28.
`NC(=NNC(=S)Nc1ccc(Cl)cc1)c1ccccn1`: the concentration for an effect of 90% (IC90) was > 10.8 µM. The pIC50 (FFLUC_HILL_SLOPE 4.43, FFLUC_R_SQUARED 0.823, PBLUC_HILL_SLOPE 0.754, PBLUC_R_SQUARED 0.703, read-out: LUCIFERASE INFECTION ASSAY - IC50) is 5.77.
Turning to `C=C(C)CC(NCc1ccco1)c1ccc(OC)cc1` (stereo unspecified), the IC90 was > 12.2 µM. Under setting [1], the negative logarithm of the IC50 (pIC50) was 5.05.
In the case of `Cc1ccnc(NC(=O)C2CC(=O)N(c3ccc(C)c(C)c3)C2)c1` (stereo unspecified), the IC90 was found to be 4.04 µM. Further, the pIC50 (HEPG2TOX_HILL_SLOPE 1.86, HEPG2TOX_R_SQUARED 0.878, PBLUC_HILL_SLOPE 11.1, PBLUC_R_SQUARED 0.462, read-out: LUCIFERASE INFECTION ASSAY - IC50) is 5.48.
As to `Nc1ccc(-c2cnc3ccc(Cc4ccc(F)cc4)nn23)cn1`, the concentration for an effect of 90% (IC90) came out at 0.455 µM. For the same compound, the pIC50 (HEPG2TOX_HILL_SLOPE 2.46, HEPG2TOX_R_SQUARED 0.531, PBLUC_HILL_SLOPE 14.2, PBLUC_R_SQUARED 0.359, read-out: LUCIFERASE INFECTION ASSAY - IC50) is 6.41.
On to `CC(C(=O)NC(C)(C)C)N1CCN(CC(=O)Nc2ccc(F)cc2)CC1` (stereo unspecified), for which the IC90 was > 10 µM. Besides, the negative-log IC50 (pIC50) under setting [1] is < 5.00.
Regarding `O=C(/C=C/c1ccccc1)c1ccc(-n2nncc2-c2ccccc2)cc1`, the IC90 is > 10 µM. For the same compound, the pIC50 (HEPG2TOX_HILL_SLOPE 6.47, HEPG2TOX_R_SQUARED 0.294, read-out: LUCIFERASE INFECTION ASSAY - IC50) is < 5.00.
Turning to `COc1ccc(-c2cnc3ccc(Cc4ccc(F)cc4)nn23)cc1OC`, the concentration for an effect of 90% (IC90) amounted to 6.11 µM. For the same compound, the pIC50 (HEPG2TOX_HILL_SLOPE 7.18, HEPG2TOX_R_SQUARED 0.189, PBLUC_HILL_SLOPE 3.8, PBLUC_R_SQUARED 0.0747, read-out: LUCIFERASE INFECTION ASSAY - IC50) was 5.46.
On to `CC(OC(=O)c1cc2ccccc2[nH]1)C(=O)Nc1cccc(C#N)c1` (stereo unspecified), for which the IC90 was > 10 µM. Moreover, the pIC50 (HEPG2TOX_HILL_SLOPE 7.96, HEPG2TOX_R_SQUARED 0.0358, PBLUC_HILL_SLOPE 3.96, PBLUC_R_SQUARED 0.0932, read-out: LUCIFERASE INFECTION ASSAY - IC50) was 5.07.
